Assay results from patent US11285135B2 (AMGEN INC., priority 2016, dated 2022).
Where two headings read alike, the source gives them in different places.

Key:
[1] = molecular target: GDP-bound BRAS protein (aa 1-169), containing both G12C and C118A amino acid substitutions (Homo sapiens, UniProt P01116, C118A/G12C); assay: Coupled Nucleotide Exchange Assay (SOS-mediated nucleotide exchange, AlphaScreen); type: biochemical; conditions: 2 hours compound pre-incubation
Summary of the method: (§1)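 His-tagged GDP-bound […] (aa 1-169, G12C/C118A) pre-incubated 2 h with compound titration in 25 mM HEPES pH 7.4, 10 mM MgCl2, 0.01% Triton X-100.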

[2] = tested on: Phosphorylation of ERK½ in A549 cells; assay: Phospho-ERK½ MSD Assay in A549 cells; type: cell-based; conditions: 4 hours compound treatment, 10 ng/mL EGF for 10 min, read-out: p-ERK IC50 (A549)
Summary of the method: (§2)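 MIA PaCa-2 or A549 cells (25,000/well, RPMI with 10% FBS) exposed to compound titration for 4 h at 37 °C, then stimulated with 10 ng/mL EGF for 10 min and lysed in RIPA. Phospho-ERK1/2 quantified by MSD whole-cell lysate immunoassay; IC50 from 4-parameter logistic fit.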

[3] = tested on: Phosphorylation of ERK½ in MIA PaCa-2 cells; assay: Phospho-ERK½ MSD Assay in MIA PaCa-2 cells; type: cell-based; conditions: 4 hours compound treatment, 10 ng/mL EGF for 10 min, read-out: p-ERK IC50 (MIA PaCa-2)
Summary of the method: as §2

[4] = molecular target: GDP-bound protein (aa 1-169), containing both G12C and C118A amino acid substitutions (Homo sapiens, UniProt P01116, C118A/G12C); assay: Coupled Nucleotide Exchange Assay (SOS-mediated nucleotide exchange, AlphaScreen); type: biochemical; conditions: 2 hours compound pre-incubation
Summary of the method: as §1

[5] = Homo sapiens, MIA PaCa-2, MIA PaCa-2 cells

Chain of GDP-bound protein (aa 1-169), containing both G12C and C118A amino acid substitutions (P01116 1-169 isoform P01116-2 G12C/C118A): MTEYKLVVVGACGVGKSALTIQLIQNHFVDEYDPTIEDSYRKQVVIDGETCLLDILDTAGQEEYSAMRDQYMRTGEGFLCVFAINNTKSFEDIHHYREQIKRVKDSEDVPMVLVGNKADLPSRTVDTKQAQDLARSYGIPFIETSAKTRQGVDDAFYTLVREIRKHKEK
Chain of GDP-bound BRAS protein (aa 1-169), containing both G12C and C118A amino acid substitutions (P01116 1-169 isoform P01116-2 G12C/C118A): as above

Compound	IC50 [1] [µM]	IC50 ([2]; A549 cells) [µM]	IC50 ([3]; MIA PaCa-2 cells) [µM]	Coupled exchange IC50 [4] [µM]	IC50 ([2]; Homo sapiens, A549, A549 cells) [µM]	IC50 [3, 5] [µM]
C=CC(=O)N1CCN(c2nc(=O)n(-c3ccccc3C(C)C)c3cc(Br)c(Cl)cc23)[C@@H](C)C1 [Example 9-2, 7-bromo-6-chloro-4-((2S)-2-methyl-4-(2-propenoyl)-1-piperazinyl)-1-(2-(2-propanyl)phenyl)-2(1H)-quinazolinone]	0.289					
C=CC(=O)N1CCN(c2nc(=O)n([C@H]3CCCCC3(C)C)c3nc(-c4c(O)cccc4F)c(Cl)cc23)CC1 (racemic) [Example 9-14, 6-chloro-1-((1R)-2,2-dimethylcyclohexyl)-7-(2-fluoro-6-hydroxyphenyl)-4-(4-(2-propenoyl)-1-piperazinyl)pyrido[2,3-d]pyrimidin-2(1H)-one|6-chloro-1-((1S)-2,2-dimethylcyclohexyl)-7-(2-fluoro-6-hydroxyphenyl)-4-(4-(2-propenoyl)-1-piperazinyl)pyrido[2,3-d]pyrimidin-2(1H)-one]				0.129	> 100	0.344
C=CC(=O)N1CCN(c2snc3c(F)c(-c4cc(O)cc5ccccc45)c(Cl)cc23)[C@@H](CO)C1 [Example 1-15]				0.562	> 100	4.7
C=CC(=O)N1CCN(c2nc(=O)n(-c3ccccc3C(C)C)c3cc(-c4c(O)cccc4F)c(Cl)cc23)CC1 (single isomer, unassigned) [Example 8-1-1, 6-chloro-7-(2-fluoro-6-hydroxyphenyl)-1-(2-(2-propanyl)phenyl)-4-(4-(2-propenoyl)-1-piperazinyl)-2(1H)-quinazolinone]		69.8	0.046	0.172		
C=CC(=O)N1CCN(c2snc3c(F)c(-c4cc(O)cc5ccccc45)c(Cl)cc23)C[C@H]1C [Example 5-7, 1-((2R)-4-(5-chloro-7-fluoro-6-(3-hydroxy-1-naphthalenyl)-2,1-benzothiazol-3-yl)-2-methyl-1-piperazinyl)-2-propen-1-one]				0.815	> 100	3.79

Next, values leading:

IC50 [1] [µM]	IC50 ([2]; A549 cells) [µM]	IC50 ([3]; MIA PaCa-2 cells) [µM]	Coupled exchange IC50 [4] [µM]	IC50 ([2]; Homo sapiens, A549, A549 cells) [µM]	IC50 [3, 5] [µM]	Compound
	21.7	0.016	0.151			C=CC(=O)N1CCN(c2nc(=O)n(-c3ccccc3C(C)C)c3cc(-c4c(C)ccc5[nH]ncc45)c(Cl)cc23)CC1 (single isomer, unassigned) [Example 11-1-2, 6-chloro-7-(5-methyl-1H-indazol-4-yl)-1-(2-(2-propanyl)phenyl)-4-(4-(2-propenoyl)-1-piperazinyl)-2(1H)-quinazolinone]
	10	0.054	0.219			C=CC(=O)N1CCN(c2nc(=O)n(-c3ccccc3C(C)C)c3cc(-c4c(C)ccc5[nH]ncc45)c(Cl)cc23)[C@@H](C)C1 (single isomer, unassigned) [Example 11-2-1]
